# Data: patent US8673320B2, “Metal-citrate transporter antigen from Streptomyces coelicolor and uses thereof” (Syracuse University, priority 2008, dated 2014)
# Structures can show the parent of a compound that is named as a salt.
# System: Sccit
# Experiment: 1,5-[^14C]-citrate transport assay in E. coli expressing Sccit
# Type: cell-based, Streptomyces coelicolor
# Conditions: E. coli AA93 Δfec or JW4251-2 ΔfecA, induced with 0.5 mM IPTG for 1 hour
# Protocol: E. coli AA93 and JW4251-2 cultures were grown in LB as described above. Protein expression for transport assays was induced at 30.0° C. with 0.5 mM Isopropyl β-D-thiogalacto-pyranoside (IPTG) at an OD600 of 1.0 for 1 hour. Subsequent flux assays followed the protocol described above for S. coelicolor and previous literature protocol (A19) with the following adaptations: cells were resuspended with 10 mL of PIPES buffer at 6.5 for all metals, and the transport assay was conducted at 37.0° C. except for iron (25° C.). Non-induced controls were included in all runs. Concentration of metal ion and citrate were chosen to maximize the formation of the desired metal-citrate complex (see Table 2). Experiments were performed using at least three independent cultures and each time point was collected in triplicate per run. Incubation of the metal ion (except for Fe^3+ as described above) and pre-complexation of the metal with [^14C]-citrate prior to cell addition yielded similar results. Experiments were also conducted, specifically for Fe^3+-citrate uptake, involving reducing the IPTG induction temperature in E. coli down to 4° C. (see FIG. 5). This was to observe actual uptake of the iron complex.
row,Structure (SMILES),"uptake of 1,5-[^14C]-citrate with metal ion cofactor"
1,[Co+2] [Co^2+],did not result in citrate uptake
2,O=C(O)CC(O)(CC(=O)O)C(=O)O [free citrate],not transported
3,[Mg+2] [Mg^2+],did not result in citrate uptake
4,[Ca+2] [Ca^2+],"uptake of 1,5-[^14C]-citrate observed"
5,[Pb+2] [Pb^2+],"uptake of 1,5-[^14C]-citrate observed"
6,[Ni+2] [Ni^2+],did not result in citrate uptake
7,[Fe+3] [Fe^3+],"uptake of 1,5-[^14C]-citrate observed"

# System: S. coelicolor
# Experiment: Growth of S. coelicolor in CHELEX-washed, metal-free SMMC broth
# Type: cell-based, Streptomyces coelicolor
# Conditions: not given
# Protocol: Streptomyces coelicolor A3(2) was obtained from a third party supplier and the American Type culture collection (BAA-471). S. coelicolor A3(2) stocks were grown in Yeast-Extract Malt Extract broth (YEME) at 28° C. in 125 mL baffled flasks to an Optical Density at 600 nm (OD600) of ˜2.0. 20% glycerol was added to the cells in a 1:1 volume ratio and the cells were chilled on ice for 1 hour and placed at −80° C. still in the ice container. After 24 hours the cells were taken out of the ice container and at −80° C. Streptomyces coelicolor was grown in Streptomyces Minimal Medium (SMM) broth for functional characterization studies. SMM was prepared as previously reported (A17) with the following modifications; L-asparagine was replaced with ammonium sulfate (1 g L^−1), agar was eliminated and either [56 mM] sodium citrate (SMMC) or [56 mM] glucose (SMMG) was added as the sole carbon source. 50 ml of SMMC or SMMG broths were inoculated with 1 ml of S. coelicolor A3(2) stock solutions and grown for 48-72 hrs at 28° C. and 300 rpm shaking in 125 mL baffled flasks.
# In addition, growth of S. coelicolor was arrested in CHELEX-washed, metal-free SMMC broth. This arrest could be prevented by addition of Fe^3+ (or Ca^2+) but not Mg^2+ or Ni^2+ to SMMC.
row,Structure (SMILES),prevention of growth arrest by addition of metal ion
1,[Mg+2] [Mg^2+],not
2,[Ca+2] [Ca^2+],prevented
3,[Ni+2] [Ni^2+],not
4,[Fe+3] [Fe^3+],prevented

# System: Streptomyces coelicolor A3(2)
# Experiment: 1,5-[^14C]-citrate transport assay in whole cells, Streptomyces coelicolor A3(2)
# Type: cell-based
# Conditions: S. coelicolor grown in SMM containing glucose, no iron in broth
# Protocol: S. coelicolor A3(2) cells were grown from stocks for 48-72 hours at 28° C. and 300 rpm. Cells were collected via centrifugation and washed twice with 50 mM chelexed piperazine-N,N′-bis(2-ethanesulfonic acid) (PIPES) buffer, pH 6.5. Cells were resuspended to an OD of 0.2 after the second wash. 100 μl of cells were added to 2.2 ml microcentrifuge tubes. 5 μl of metal as the chloride salt was then added from the following stock solution concentrations (220 mM CaCl2 or BaCl2, 22 mM MgCl2, NiCl2, 22 mM CoCl2, PbCl2, MnCl2 and 1.65 mM FeCl3). Different molar amounts of metals were used to maximize metal-citrate complex formation as per MINTEQ calculations (A12) and successfully used in a previous literature report (A19). Cells were then incubated at 30° C. for 8 minutes with shaking. At 8 minutes, 5 μl of 96.8 μM 1,5-[^14C]-citrate was added to each sample to provide a final concentration of 4.4 μM. Uptake was stopped by addition of 2 mL of 0.1 M LiCl. This was followed by immediate filtration through cellulose nitrate filters ([…], 2.1 cm diameter). The filters were washed with 2×2 mL of 0.1 M LiCl solution and radioactivity was recorded using a liquid scintillation counter. In every experimental run, background radioactivity was gauged by adding 2 mls of LiCl prior to addition of the radiolabelled citrate. As before, cells were then immediately filtered, washed with 2×2 mL of 0.1 M LiCl and radioactivity monitored. This served as the background and was subtracted from final data. Experiments were performed using at least three independent cultures and each time point was collected in triplicate per run. 4×100 μl of cells from each run were filtered directly through pre-weighed cellulose nitrate filter paper and dried to determine average cell sample weight. Transport assays were also ‘stopped’ using 10 mM HEPES-glucose buffer instead of 0.1 M LiCl to check for the occurrence of ‘leaking’, which has been postulated to occur with the use of LiCl (A22). No noticeable difference was observed across multiple cultures tested in either S. coelicolor (or E. coli as described below).
# It is important to note that pre-incubating the ‘free’ metal prior to addition of ^14[C]-citrate or synthesizing the complex and then adding it to the cells made no difference to experimental results consistent with the work reported by Lolkema et al. (A19), except in the case of Fe^3+. Transport assays with Fe^3+ were performed at 25.0° C. with the metal precomplexed to [^14C]-citrate to prevent Fe^3+ precipitation in the aqueous buffer. The temperature and pH change were accounted for in MINTEQ calculations. All experiments using precomplexed mixtures were filtered using a 0.45 μm syringe filter (Fisher Scientific) prior to addition to cells.
row,Structure (SMILES),"Fe^3+-citrate uptake, iron absent from growth broth"
1,O=C([O-])CC(O)(CC(=O)[O-])C(=O)[O-].[Fe+3] [Fe^3+-citrate],greatly reduced

# Same assay, conditions: S. coelicolor grown in broth with citrate as sole carbon source (SMMC); PIPES pH 6.5; 4.4 μM citrate
row,Structure (SMILES),uptake of citrate in the presence of metal ion
1,[Co+2] [Co^2+],no greater than the rate of uptake without metal ions
2,O=C(O)CC(O)(CC(=O)O)C(=O)O [free citrate],no uptake
3,[Mg+2] [Mg^2+],no greater than the rate of uptake without metal ions
4,[Ni+2] [Ni^2+],no greater than the rate of uptake without metal ions
5,[Fe+3] [Fe^3+],uptake was dependent on the presence

# Same assay, conditions: S. coelicolor grown with glucose (SMMG); for Fe^3+ SMMG supplemented with 36 μM FeCl3.6H2O
row,Structure (SMILES),uptake of citrate or metal-citrate species above background
1,[Ba+2] [Ba^2+],No uptake
2,[Co+2] [Co^2+],No uptake
3,O=C(O)CC(O)(CC(=O)O)C(=O)O [free citrate],No uptake
4,[Mg+2] [Mg^2+],No uptake
5,[Ca+2] [Ca^2+],No uptake
6,[Pb+2] [Pb^2+],No uptake
7,[Ni+2] [Ni^2+],No uptake
8,[Fe+3] [Fe^3+],significant uptake

# Same assay, conditions: in the presence of 10 mM Ca^2+
row,Structure (SMILES),EGTA concentration at which citrate uptake decreased to zero
1,"O=C(O)CN(CCOCCOCCN(CC(=O)O)CC(=O)O)CC(=O)O [EGTA, ethylene glycol tetraacetic acid, reference compound]",over 1 mM
